Assay results reported in patent US11072741B2, “Optically anisotropic layer, method for producing the optically anisotropic layer, a laminate, polarizing plate, display device, liquid crystal compound, method for producing the liquid crystal compound, and carboxylic acid compound” (FUJIFILM Corporation, priority 2014, dated 2021).

How the values were obtained:
[1] = Evaluation of phase transition temperature by polarizing microscope; type: physicochemical
Description: Here, the temperature at which the compound transitions from the smectic phase to the nematic phase may be easily measured by observation of the composition employing polarized light microscopy. For example, in the nematic phase, a schlieren texture specific to the nematic phase is observed, while the texture transitions to a focal conic fan texture in a smectic A phase. Therefore, the phase transition temperature can be measured by observing the textures with a polarizing microscope while increasing or decreasing the temperature.
The phase transition temperatures of the synthesized liquid crystal compounds of the Examples and Comparative Examples were observed using a polarizing microscope to evaluate the degrees of temperature decrease. Specifically, the compounds of the Examples were compared to the compounds of the Comparative Examples, which have different structures for the side chain portions thereof. That is, the phase transition temperature of a compound of a Comparative Example having Ar (the aromatic ring at the center of General Formula 1) in common with the Examples and a side chain portion represented by Formula (Ia) below was used as a reference. Evaluations of A through C were assigned according to the degree of temperature decrease from the reference phase transition temperature.
(§1) For example, compound (I-1) and (I-2) were compared to Comparative Compound (Ia-1), and Compound (III-3) was compared to Comparative Compound (IIIa-3). The evaluation was carried out based on the following criteria.
A: decrease in melting point or Sm-N (smectic-nematic) transition temperature is 20° C. or greater
B: decrease in melting point or Sm-N (smectic-nematic) transition temperature is 5° C. or greater and less than 20° C.
C: decrease in melting point or Sm-N (smectic-nematic) transition temperature is less than 5° C.
With respect to the phase transition temperature, the numerical value in parentheses represents the numerical value during temperature decrease, and other numerical values represent a numerical value during temperature increase.

[2] = Measurement and evaluation of solubility in MEK and CPN; type: physicochemical
Protocol: Solubility measurements of the synthesized liquid crystal compounds were conducted by the following method. 50 mg of each compound was weighted into a 1.5 mL sample bottle, and solvent was added until the solid component became 40 wt % (75 mg). The solubility was determined to be 40 wt % if clear under visual observation after shaking well manually at room temperature. If undissolved residue was present, solvent was added such that the solid component became 35 wt % (+18 mg). The solubility was determined to be 35 wt % if clear under visual observation after shaking well manually at room temperature. If undissolved residue was present, solvent was added such that the solid component became 30 wt %. Similar operations were performed in increments of 5 wt %, and repeated until the solid component became 5 wt %. If undissolved residue was present, the solubility was determined to be less than 5 wt % (<5 wt %), and measurements were completed. MEK (methyl ethyl ketone) and CPN (cyclopentanone) were utilized as solvents for measuring solubility.
The measured values of solubility were evaluated. The evaluations were conducted by using solubility of a compound of a Comparative Example having Ar (the aromatic ring at the center of General Formula 1) in common with the Examples and a side chain portion represented by Formula (Ia) as a reference, in a manner similar to that in the evaluation of the phase transition temperature. Evaluations of A through C were assigned according to the degree of improvement in solubility from the reference solubility.
as §1
A: solubility improved twofold or greater in plural solvents or a single solvent
B: solubility was the same or improved up to twofold in plural solvents or a single solvent
C: no improvement in solubility in plural solvents or a single solvent

[3] = versus comparative compound with the same Ar and side chain portion of Formula (Ia)

melting point: 126 °C
TNi(° C.) Isotropic Phase Transition Point ([1]; during temperature increase): 185 °C
Tsm—N(° C.) Sm—N Transition Point ([1]; during temperature increase): 179 °C
Solubility CPN wt % ([2]; cyclopentanone, room temperature, visual observation, 5 wt % increments): 25 wt %
Solubility MEK wt % ([2]; methyl ethyl ketone, room temperature, visual observation, 5 wt % increments): 10 wt %
Compound: C=CCCCCCCCCC(=O)OCCc1ccc(OC(=O)[C@H]2CC[C@H](C(=O)Oc3ccc(OC(=O)[C@H]4CC[C@H](C(=O)Oc5ccc(CCOC(=O)CCCCCCCCC=C)cc5)CC4)c4c3SC(=C(C#N)C#N)S4)CC2)cc1 [Compound I-14]
Phase Transition Temperature Evaluation of Decrease [1, 3]: B (decrease in melting point or Sm-N (smectic-nematic) transition temperature is 5 °C or greater and less than 20° C.)
Solubility Evaluation [2, 3]: A (solubility improved twofold or greater in plural solvents or a single solvent)
